ChEMBL document CHEMBL5291721, “A preclinical secondary pharmacology resource illuminates target-adverse drug reaction associations of marketed drugs” (Nat Commun, 2023)

Assays:
[1] = target: T1, Muscarinic acetylcholine receptor M2 (Homo sapiens, UniProt P08172)
T1 sequence (P08172 whole entry): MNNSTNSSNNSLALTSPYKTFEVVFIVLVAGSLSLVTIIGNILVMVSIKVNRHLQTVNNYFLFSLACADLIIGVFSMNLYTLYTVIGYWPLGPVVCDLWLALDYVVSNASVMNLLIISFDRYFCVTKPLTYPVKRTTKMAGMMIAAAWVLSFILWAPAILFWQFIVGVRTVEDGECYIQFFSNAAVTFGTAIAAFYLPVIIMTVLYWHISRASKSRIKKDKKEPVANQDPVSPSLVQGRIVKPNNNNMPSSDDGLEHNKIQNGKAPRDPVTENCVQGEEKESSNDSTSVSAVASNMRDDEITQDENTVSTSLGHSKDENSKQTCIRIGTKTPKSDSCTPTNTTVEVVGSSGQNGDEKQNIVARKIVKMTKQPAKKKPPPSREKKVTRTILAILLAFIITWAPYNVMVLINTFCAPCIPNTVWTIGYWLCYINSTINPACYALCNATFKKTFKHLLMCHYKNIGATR

[2] = target: T2, Alpha-1A adrenergic receptor (Homo sapiens, UniProt P35348); format: functional, cell-based
T2 sequence (P35348 whole entry): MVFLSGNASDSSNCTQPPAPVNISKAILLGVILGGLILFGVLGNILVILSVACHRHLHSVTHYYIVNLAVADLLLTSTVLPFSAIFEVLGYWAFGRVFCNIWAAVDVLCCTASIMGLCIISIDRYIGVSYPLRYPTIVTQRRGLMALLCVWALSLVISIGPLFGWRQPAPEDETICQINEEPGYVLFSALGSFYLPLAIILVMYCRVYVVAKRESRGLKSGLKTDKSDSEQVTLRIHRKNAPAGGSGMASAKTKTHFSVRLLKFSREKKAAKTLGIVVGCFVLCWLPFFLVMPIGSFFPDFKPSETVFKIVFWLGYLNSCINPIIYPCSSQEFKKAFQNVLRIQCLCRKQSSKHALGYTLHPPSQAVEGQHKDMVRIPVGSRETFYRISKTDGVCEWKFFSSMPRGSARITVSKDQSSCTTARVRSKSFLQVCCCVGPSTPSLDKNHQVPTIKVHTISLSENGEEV

[3] = target: T3, Thromboxane A2 receptor (Homo sapiens, UniProt P21731); format: functional, cell-based
T3 sequence (P21731 whole entry): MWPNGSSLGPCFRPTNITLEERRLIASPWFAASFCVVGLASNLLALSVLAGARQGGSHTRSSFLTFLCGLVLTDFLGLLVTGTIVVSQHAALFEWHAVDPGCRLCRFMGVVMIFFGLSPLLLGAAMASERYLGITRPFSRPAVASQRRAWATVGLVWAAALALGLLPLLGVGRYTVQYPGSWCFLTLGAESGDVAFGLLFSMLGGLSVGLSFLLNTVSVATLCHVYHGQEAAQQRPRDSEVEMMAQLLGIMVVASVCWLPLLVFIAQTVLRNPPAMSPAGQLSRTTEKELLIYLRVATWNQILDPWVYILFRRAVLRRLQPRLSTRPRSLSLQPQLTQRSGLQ

[4] = target: Sodium-dependent dopamine transporter (Homo sapiens, UniProt Q01959)
[5] = target: Prothrombin (Homo sapiens, UniProt P00734); format: functional
[6] = target: T4, Adenosine receptor A3 (Homo sapiens, UniProt P0DMS8)
T4 sequence (P0DMS8 whole entry): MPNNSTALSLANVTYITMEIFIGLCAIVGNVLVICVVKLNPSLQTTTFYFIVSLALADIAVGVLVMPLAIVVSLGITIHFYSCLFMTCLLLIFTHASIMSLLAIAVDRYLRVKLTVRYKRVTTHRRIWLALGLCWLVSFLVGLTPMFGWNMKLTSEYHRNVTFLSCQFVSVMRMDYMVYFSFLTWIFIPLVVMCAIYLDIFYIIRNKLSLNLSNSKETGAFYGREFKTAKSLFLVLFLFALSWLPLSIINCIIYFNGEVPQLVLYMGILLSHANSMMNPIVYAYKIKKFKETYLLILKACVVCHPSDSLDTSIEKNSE

[7] = target: Voltage-gated inwardly rectifying potassium channel KCNH2 (Homo sapiens, UniProt Q12809); format: functional; settings: read-out: AC50
[8] = target: 5-hydroxytryptamine receptor 2B (Homo sapiens, UniProt P41595); format: functional, cell-based
[9] = target: Prostaglandin G/H synthase 1 (Homo sapiens, UniProt P23219); format: functional
[10] = target: T5, Estrogen receptor (Homo sapiens, UniProt P03372)
T5 sequence (P03372 whole entry): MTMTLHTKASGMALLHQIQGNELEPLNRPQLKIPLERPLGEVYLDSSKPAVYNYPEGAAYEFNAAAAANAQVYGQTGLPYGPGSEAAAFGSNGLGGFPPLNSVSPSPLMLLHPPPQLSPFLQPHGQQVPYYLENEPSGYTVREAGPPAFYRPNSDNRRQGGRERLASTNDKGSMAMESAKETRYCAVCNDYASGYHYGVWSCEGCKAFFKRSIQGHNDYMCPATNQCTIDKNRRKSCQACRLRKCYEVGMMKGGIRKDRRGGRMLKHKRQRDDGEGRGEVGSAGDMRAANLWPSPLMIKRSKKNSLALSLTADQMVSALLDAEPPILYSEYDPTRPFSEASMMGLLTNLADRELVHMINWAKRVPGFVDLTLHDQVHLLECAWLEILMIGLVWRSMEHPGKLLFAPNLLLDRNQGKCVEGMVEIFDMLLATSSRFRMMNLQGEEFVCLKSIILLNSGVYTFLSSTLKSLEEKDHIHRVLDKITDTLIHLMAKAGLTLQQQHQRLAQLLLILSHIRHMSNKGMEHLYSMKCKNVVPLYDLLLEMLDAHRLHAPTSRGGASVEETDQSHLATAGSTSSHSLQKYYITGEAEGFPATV
Note: assay procedure not described here.

Sequence of Prostaglandin G/H synthase 1 (P23219 whole entry): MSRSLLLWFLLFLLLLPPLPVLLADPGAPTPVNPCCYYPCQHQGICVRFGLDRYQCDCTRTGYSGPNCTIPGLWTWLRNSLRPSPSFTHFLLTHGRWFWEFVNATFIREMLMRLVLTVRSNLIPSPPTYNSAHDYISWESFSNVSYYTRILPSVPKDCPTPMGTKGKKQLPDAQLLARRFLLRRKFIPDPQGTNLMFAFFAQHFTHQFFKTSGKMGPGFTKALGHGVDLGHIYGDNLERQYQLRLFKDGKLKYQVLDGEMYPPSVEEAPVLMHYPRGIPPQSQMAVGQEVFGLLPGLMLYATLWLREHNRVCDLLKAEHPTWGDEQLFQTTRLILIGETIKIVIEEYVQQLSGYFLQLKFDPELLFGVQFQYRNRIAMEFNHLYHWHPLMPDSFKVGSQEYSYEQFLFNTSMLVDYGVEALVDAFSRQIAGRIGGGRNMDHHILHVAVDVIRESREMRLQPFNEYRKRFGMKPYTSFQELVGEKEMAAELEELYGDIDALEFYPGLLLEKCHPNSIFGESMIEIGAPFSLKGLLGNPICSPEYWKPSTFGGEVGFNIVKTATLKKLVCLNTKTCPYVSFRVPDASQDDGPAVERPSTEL
Sequence of Sodium-dependent dopamine transporter (Q01959 whole entry): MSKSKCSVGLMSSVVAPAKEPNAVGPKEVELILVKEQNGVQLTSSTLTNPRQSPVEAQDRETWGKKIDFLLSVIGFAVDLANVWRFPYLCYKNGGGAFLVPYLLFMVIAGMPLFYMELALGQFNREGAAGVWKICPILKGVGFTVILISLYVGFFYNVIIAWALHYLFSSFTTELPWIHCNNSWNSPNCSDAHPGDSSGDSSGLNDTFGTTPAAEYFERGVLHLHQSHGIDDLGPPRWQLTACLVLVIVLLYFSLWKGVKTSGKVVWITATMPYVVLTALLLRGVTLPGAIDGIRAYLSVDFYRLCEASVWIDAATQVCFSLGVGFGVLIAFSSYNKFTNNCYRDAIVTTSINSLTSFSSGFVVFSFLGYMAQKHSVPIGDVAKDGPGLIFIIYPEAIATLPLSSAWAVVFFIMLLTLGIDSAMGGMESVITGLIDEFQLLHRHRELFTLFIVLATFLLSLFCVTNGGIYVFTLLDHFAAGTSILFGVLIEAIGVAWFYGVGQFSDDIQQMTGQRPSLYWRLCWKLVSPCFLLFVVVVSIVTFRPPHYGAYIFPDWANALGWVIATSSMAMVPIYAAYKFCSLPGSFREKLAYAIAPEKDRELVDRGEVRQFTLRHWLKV
Sequence of 5-hydroxytryptamine receptor 2B (P41595 whole entry): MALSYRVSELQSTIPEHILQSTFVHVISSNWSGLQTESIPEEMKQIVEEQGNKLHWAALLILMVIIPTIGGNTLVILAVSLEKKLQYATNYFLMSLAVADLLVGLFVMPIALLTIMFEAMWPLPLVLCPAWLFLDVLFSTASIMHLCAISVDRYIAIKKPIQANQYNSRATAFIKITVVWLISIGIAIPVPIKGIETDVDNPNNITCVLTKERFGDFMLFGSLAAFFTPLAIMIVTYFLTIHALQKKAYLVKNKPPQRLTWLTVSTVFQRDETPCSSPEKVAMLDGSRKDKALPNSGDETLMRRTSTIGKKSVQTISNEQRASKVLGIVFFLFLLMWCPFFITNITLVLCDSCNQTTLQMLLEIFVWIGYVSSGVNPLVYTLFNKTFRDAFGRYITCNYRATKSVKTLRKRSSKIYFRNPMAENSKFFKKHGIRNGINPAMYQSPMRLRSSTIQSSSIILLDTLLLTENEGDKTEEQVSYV
Sequence of Voltage-gated inwardly rectifying potassium channel KCNH2 (Q12809 whole entry): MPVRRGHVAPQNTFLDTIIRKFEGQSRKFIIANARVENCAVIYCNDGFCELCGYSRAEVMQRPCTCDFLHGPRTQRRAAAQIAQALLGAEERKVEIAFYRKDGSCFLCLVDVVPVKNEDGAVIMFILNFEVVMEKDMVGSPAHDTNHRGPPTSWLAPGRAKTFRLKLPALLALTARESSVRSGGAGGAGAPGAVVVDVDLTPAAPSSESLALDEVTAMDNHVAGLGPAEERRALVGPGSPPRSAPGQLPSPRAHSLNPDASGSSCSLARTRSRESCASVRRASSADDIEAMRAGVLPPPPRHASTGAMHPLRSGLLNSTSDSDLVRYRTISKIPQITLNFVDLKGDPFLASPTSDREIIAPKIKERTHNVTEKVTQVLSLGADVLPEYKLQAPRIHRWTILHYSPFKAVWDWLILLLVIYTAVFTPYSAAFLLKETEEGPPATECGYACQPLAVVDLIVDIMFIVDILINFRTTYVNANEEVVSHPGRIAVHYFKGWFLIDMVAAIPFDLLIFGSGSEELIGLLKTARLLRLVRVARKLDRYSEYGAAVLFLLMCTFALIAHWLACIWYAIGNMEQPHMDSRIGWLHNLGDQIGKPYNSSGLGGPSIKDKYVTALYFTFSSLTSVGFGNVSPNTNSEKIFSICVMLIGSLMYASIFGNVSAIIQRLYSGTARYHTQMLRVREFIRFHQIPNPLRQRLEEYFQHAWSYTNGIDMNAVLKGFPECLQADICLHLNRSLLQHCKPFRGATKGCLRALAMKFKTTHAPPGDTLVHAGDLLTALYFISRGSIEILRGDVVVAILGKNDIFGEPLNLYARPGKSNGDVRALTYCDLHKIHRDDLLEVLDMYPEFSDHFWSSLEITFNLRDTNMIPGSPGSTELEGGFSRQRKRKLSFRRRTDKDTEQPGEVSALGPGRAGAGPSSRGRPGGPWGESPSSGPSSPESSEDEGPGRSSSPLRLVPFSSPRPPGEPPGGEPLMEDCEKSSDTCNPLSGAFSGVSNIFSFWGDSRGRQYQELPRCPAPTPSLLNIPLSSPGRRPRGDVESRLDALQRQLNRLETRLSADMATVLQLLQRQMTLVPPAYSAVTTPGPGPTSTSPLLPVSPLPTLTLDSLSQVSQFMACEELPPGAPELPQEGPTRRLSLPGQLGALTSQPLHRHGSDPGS

| SMILES | AC50 [1] [µM] | AC50 [2] [µM] | AC50 [3] [µM] | AC50 [4] [µM] | AC50 [5] [µM] | AC50 [6] [µM] | AC50 [7] [µM] | AC50 [8] [µM] | AC50 [9] [µM] | AC50 [10] [µM] |
| --- | --- | --- | --- | --- | --- | --- | --- | --- | --- | --- |
| Nc1ccc(C(=O)O)cc1 [AMINOBENZOIC ACID] | > 30 | > 30 | > 30 | > 30 | > 30 | > 30 | > 30 | > 30 | 2.18 | > 30 |
| O=C1CN=C(c2ccccc2)c2c(sc3c2CCCC3)N1 [BENTAZEPAM] | > 30 | 12.4 | > 30 | > 30 | > 30 | 14.3 | > 30 | > 30 | > 1 | > 30 |
| O=C(O)CCCN1CCC(O[C@@H](c2ccc(Cl)cc2)c2ccccn2)CC1 [BEPOTASTINE] | > 30 | > 30 | > 30 | > 30 | > 30 | > 30 | > 30 | > 30 | > 30 | > 30 |
| CN(Cc1cc(Br)cc(Br)c1N)C1CCCCC1 [BROMHEXINE] | > 30 | > 30 | > 30 | 12.3 | > 30 | 27.9 | 20 | > 30 | > 30 | > 30 |
| CCCC[N+]1(C)[C@@H]2C[C@@H](OC(=O)[C@H](CO)c3ccccc3)C[C@H]1[C@@H]1O[C@@H]12 (stereo not given in full) [BUTYLSCOPOLAMINE] | – | > 30 | > 30 | > 30 | > 30 | > 30 | 2.8 | > 30 | > 30 | > 30 |
| O=C(c1ccc(F)c(F)c1Nc1ccc(I)cc1F)N1CC(O)([C@@H]2CCCCN2)C1 [COBIMETINIB] | 13.8 | 13.6 | > 3 | 7.3 | > 30 | > 30 | – | > 30 | > 30 | > 30 |
| CN1CCN(C(c2ccccc2)c2ccccc2)CC1 [CYCLIZINE] | 0.334 | > 30 | > 30 | 1.98 | > 30 | 9.64 | 20 | > 30 | > 30 | > 30 |
| NS(=O)(=O)c1cc2c(cc1Cl)NC(C1CC3C=CC1C3)NS2(=O)=O (stereo not given) [CYCLOTHIAZIDE] | > 30 | > 30 | > 30 | > 30 | > 30 | > 30 | > 30 | > 30 | > 30 | > 30 |
| Nc1nc(-n2cc(C(=O)O)c(=O)c3cc(F)c(N4CC(O)C4)c(Cl)c32)c(F)cc1F [DELAFLOXACIN] | > 30 | > 30 | > 30 | > 30 | > 30 | > 3 | > 30 | > 30 | > 30 | > 30 |
| COc1ccc(-c2cc(=O)c3c(O)cc(O[C@@H]4O[C@H](CO[C@@H]5O[C@@H](C)[C@H](O)[C@@H](O)[C@H]5O)[C@@H](O)[C@H](O)[C@H]4O)cc3o2)cc1O [DIOSMIN] | > 30 | > 30 | > 30 | > 30 | > 30 | > 30 | > 30 | > 30 | > 30 | > 30 |
| O=C(Nc1ccccc1)OCC(CN1CCCCC1)OC(=O)Nc1ccccc1 (stereo not given) [DIPERODON] | > 30 | > 30 | > 30 | > 30 | > 30 | > 30 | 5.4 | > 30 | > 30 | > 30 |
| CCOc1ccc(/C=C2\NCCc3cc(OCC)c(OCC)cc32)cc1OCC [DROTAVERINE] | 28.4 | > 10 | > 30 | > 30 | > 30 | 26.4 | 2.9 | > 30 | > 10 | > 30 |
| CC1=NN(c2ccccc2)C(=O)C1 [EDARAVONE] | 26.5 | > 30 | > 30 | > 30 | > 30 | > 30 | > 30 | > 30 | 12.5 | > 30 |
| CCOC(=O)C(c1c(O)c2ccccc2oc1=O)c1c(O)c2ccccc2oc1=O [ETHYL BISCOUMACETATE] | > 30 | > 30 | > 30 | > 30 | > 30 | 17.3 | > 30 | > 30 | > 30 | > 30 |
| Cc1nc(-c2ccc(OCC(C)C)c(C#N)c2)sc1C(=O)O [FEBUXOSTAT] | > 30 | > 30 | > 30 | > 30 | > 30 | > 30 | > 30 | > 30 | > 30 | > 30 |
| O=C1NCC2(CCN(CCc3ccccc3)CC2)O1 [FENSPIRIDE] | 16.4 | > 30 | > 30 | > 30 | > 30 | > 30 | > 30 | > 30 | > 30 | > 30 |
| Cn1cc[nH]c1=S [METHIMAZOLE] | > 30 | > 30 | > 30 | > 30 | > 30 | > 30 | – | > 30 | > 30 | > 30 |
| O=[N+]([O-])c1cncn1CCN1CCOCC1 [NIMORAZOLE] | > 30 | > 30 | > 30 | > 30 | > 30 | > 30 | – | > 30 | > 30 | > 30 |
| COc1cc2c(cc1OC)[C@H]1C[C@@H](OC(=O)[C@@H](N)C(C)C)[C@H](CC(C)C)CN1CC2 [VALBENAZINE] | > 30 | > 30 | 13.9 | > 30 | > 30 | > 30 | – | > 30 | 24.1 | > 30 |
